Laboratory results reported in PubChem BioAssay (NCI).
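Five concentrations, 48 hours, 96-well plates. Abbreviation: GI50, concentration required for 50% inhibition of growth. TGI is the concentration that stops growth completely.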

Legend:
Experiment in all cases: DTP human tumour cell line panel, 48 h
[1] = test system: KM12 colon
[2] = test system: LOX IMVI melanoma
[3] = test system: SR leukemia
[4] = test system: HT29 colon
[5] = test system: K-562 leukemia
[6] = test system: SN12C renal
[7] = test system: 786-0 renal
[8] = test system: MALME-3M melanoma
[9] = test system: UACC-257 melanoma
[10] = test system: HOP-92 NSCLC
[11] = test system: PC-3 prostate
[12] = test system: SF-295 CNS
[13] = test system: SNB-75 CNS
[14] = test system: HOP-62 NSCLC
[15] = test system: RPMI-8226 leukemia
[16] = test system: BT-549 breast
[17] = test system: HCT-116 colon
[18] = test system: SK-MEL-2 melanoma
[19] = test system: UACC-62 melanoma
[20] = test system: ACHN renal
[21] = test system: NCI-H460 lung
[22] = test system: SF-539 CNS
[23] = test system: SF-268 CNS
[24] = test system: OVCAR-3 ovarian
[25] = test system: M14 melanoma
[26] = test system: SNB-19 CNS
[27] = test system: MOLT-4 leukemia
[28] = test system: COLO 205 colon
[29] = test system: IGROV1 ovarian
[30] = test system: SK-OV-3 ovarian
[31] = test system: NCI/ADR-RES ovarian
[32] = test system: EKVX NSCLC
[33] = test system: T-47D breast
[34] = test system: MCF7 breast
[35] = test system: NCI-H226 lung
[36] = test system: OVCAR-8 ovarian
[37] = test system: TK-10 renal
[38] = test system: SK-MEL-5 melanoma
[39] = test system: HL-60(TB) leukemia
[40] = test system: HS 578T breast
[41] = test system: MDA-MB-231 breast
[42] = test system: A549 NSCLC
[43] = test system: HCC-2998 colon
[44] = test system: HCT-15 colon
[45] = test system: DU-145 prostate
[46] = test system: OVCAR-5 ovarian
[47] = test system: RXF 393 renal
[48] = test system: OVCAR-4 ovarian
[49] = test system: U251 CNS
[50] = test system: SK-MEL-28 melanoma
[51] = test system: UO-31 renal
[52] = test system: CCRF-CEM leukemia
[53] = test system: NCI-H23 lung
[54] = test system: NCI-H522 lung
[55] = test system: MDA-MB-435
[56] = test system: SW-620 colon
[57] = test system: A498 renal

COCC1(CO)C(=O)C2CCN1CC2 (centres undefined)
GI50 [1]: > 100 µM | TGI [1]: > 100 µM | GI50 [2]: 18.2 µM | TGI [2]: 37.2 µM | GI50 [3]: 18.4 µM | TGI [3]: 58.4 µM | GI50 [4]: 28.1 µM | TGI [4]: > 63.9 µM | GI50 [5]: 19.9 µM | TGI [5]: 58.5 µM | GI50 [6]: 16.1 µM | TGI [6]: 31.1 µM | GI50 [7]: 17.4 µM | TGI [7]: 35.5 µM | GI50 [8]: 12.6 µM | TGI [8]: 28.3 µM | GI50 [9]: 17.7 µM | TGI [9]: 34 µM | GI50 [10]: 14.8 µM | TGI [10]: 30 µM | GI50 [11]: 36 µM | TGI [11]: > 58.4 µM | GI50 [12]: > 100 µM | TGI [12]: > 100 µM | GI50 [13]: 21.9 µM | TGI [13]: > 94.2 µM | GI50 [14]: > 100 µM | TGI [14]: > 100 µM | GI50 [15]: 23.8 µM | TGI [15]: 64.3 µM | GI50 [16]: 15.6 µM | TGI [16]: 29.5 µM | GI50 [17]: 14.3 µM | TGI [17]: 27.9 µM | GI50 [18]: 20.6 µM | TGI [18]: 46.5 µM | GI50 [19]: 23 µM | TGI [19]: > 56.1 µM | GI50 [20]: 14.5 µM | TGI [20]: 28.7 µM | GI50 [21]: > 59 µM | TGI [21]: > 100 µM | GI50 [22]: > 40.7 µM | TGI [22]: > 55.7 µM | GI50 [23]: > 90.1 µM | TGI [23]: > 100 µM | GI50 [24]: 14.2 µM | TGI [24]: 29.4 µM | GI50 [25]: 15.4 µM | TGI [25]: 31.6 µM | GI50 [26]: > 69 µM | TGI [26]: > 100 µM | GI50 [27]: 19.4 µM | TGI [27]: 51.4 µM | GI50 [28]: 16.8 µM | TGI [28]: 35.8 µM | GI50 [29]: 18.4 µM | TGI [29]: 40.6 µM | GI50 [30]: > 51 µM | TGI [30]: > 80.9 µM | GI50 [31]: 25.6 µM | TGI [31]: > 78.6 µM | GI50 [32]: 18.1 µM | TGI [32]: 43.4 µM | GI50 [33]: 9.55 µM | TGI [33]: 34.3 µM | GI50 [34]: 19.1 µM | TGI [34]: 52.6 µM | GI50 [35]: > 47.5 µM | TGI [35]: > 71.9 µM | GI50 [36]: 34.6 µM | TGI [36]: > 80.3 µM | GI50 [37]: 16.8 µM | TGI [37]: 31.1 µM | GI50 [38]: 43.7 µM | TGI [38]: > 77.7 µM | GI50 [39]: 18.9 µM | TGI [39]: 45.2 µM | GI50 [40]: > 67.5 µM | TGI [40]: > 100 µM | GI50 [41]: 17.2 µM | TGI [41]: 32 µM | GI50 [42]: > 79 µM | TGI [42]: > 100 µM | GI50 [43]: > 100 µM | TGI [43]: > 100 µM | GI50 [44]: 15.8 µM | TGI [44]: 32.7 µM | GI50 [45]: 17.7 µM | TGI [45]: 32.3 µM | GI50 [46]: 26.2 µM | TGI [46]: > 55.7 µM | GI50 [47]: 15.7 µM | TGI [47]: 30.2 µM | GI50 [48]: 16.9 µM | TGI [48]: 40.4 µM | GI50 [49]: > 71 µM | TGI [49]: > 100 µM | GI50 [50]: 14.5 µM | TGI [50]: 28.6 µM | GI50 [51]: 15.1 µM | TGI [51]: 30 µM | GI50 [52]: 10.8 µM | TGI [52]: 37.1 µM | GI50 [53]: 19.7 µM | TGI [53]: 46 µM | GI50 [54]: 4.28 µM | TGI [54]: 11.7 µM | GI50 [55]: 17.1 µM | TGI [55]: 32.8 µM | GI50 [56]: 18.1 µM | TGI [56]: 37.9 µM | GI50 [57]: 23 µM | TGI [57]: 63.9 µM
